Measurements from patent publication US20190022152A1, “MICROBIOME RESPONSE TO AGENTS” (Yeda Research and Development Co., Ltd., priority 2014, published 2019).

System: fecal microbiota KEGG pathways
Assay: Shotgun metagenomic sequencing: KEGG pathway abundance (Table 2)
Assay type: in vivo, mice
Protocol: Illumina sequence reads were mapped to the human microbiome reference genome database of the Human Microbiome Project [www(dot)hmpdacc(dot)org/HMREFG/^32], and to a gut microbial gene catalogue^33 using GEM mapper^58 with the following parameters: • -m 3 -s 0 -q offset-33 -gem-quality-threshold 26
Microbial species abundance was measured as the fraction of reads that mapped to a single species in the database. An EM algorithm adapted from Pathoscope^59 was employed to determine the correct assignment of reads that mapped to more than one species. We considered only species for which at least 10% of the genome was covered (each coverage bin was 10,000-bp long) in at least one of the growth conditions (saccharin, water, or glucose). Reads mapped to the gut microbial gene catalogue were assigned a KEGG^34,35 ID according to the mapping available with the catalogue. Genes were subsequently mapped to KEGG pathways, and only pathways whose gene coverage was above 0.2 were included.

O=C1NS(=O)(=O)c2ccccc21 [saccharin]
glycan degradation pathways abundance (GF mice transplanted with microbiomes cultured in vitro with 5 mgml^−1 saccharin vs PBS): highly enriched
Log_fold change: 2-Oxocarboxylic acid metabolism (In vivo (week 11/week 0)): 0.10
Log_fold change: ABC transporters (In vivo (week 11/week 0)): 0.02
Log_fold change: Alanine, aspartate and glutamate metabolism (In vivo (week 11/week 0)): 0.02
Log_fold change: Amino sugar and nucleotide sugar metabolism (In vivo (week 11/week 0)): 0.09
Log_fold change: Aminoacyl-tRNA biosynthesis (In vivo (week 11/week 0)): −0.13
Log_fold change: Aminobenzoate degradation (In vivo (week 11/week 0)): 0.04
Log_fold change: Arginine and proline metabolism (In vivo (week 11/week 0)): 0.05
Log_fold change: Ascorbate and aldarate metabolism (In vivo (week 11/week 0)): 0.27
Log_fold change: Atrazine degradation (In vivo (week 11/week 0)): 0.12
Log_fold change: Bacterial chemotaxis (In vivo (week 11/week 0)): 0.30
Log_fold change: Bacterial secretion system (In vivo (week 11/week 0)): −0.10
Log_fold change: Base excision repair (In vivo (week 11/week 0)): 0.03
Log_fold change: Benzoate degradation (In vivo (week 11/week 0)): 0.00
Log_fold change: Biosynthesis of amino acids (In vivo (week 11/week 0)): 0.03
Log_fold change: Biosynthesis of siderophore group nonribosomal peptides (In vivo (week 11/week 0)): 0.16
Log_fold change: Biosynthesis of unsaturated fatty acids (In vivo (week 11/week 0)): −0.07
Log_fold change: Biotin metabolism (In vivo (week 11/week 0)): 0.13
Log_fold change: Bisphenol degradation (In vivo (week 11/week 0)): 0.04
Log_fold change: Butanoate metabolism (In vivo (week 11/week 0)): 0.00
Log_fold change: CS-Branched dibasic acid metabolism (In vivo (week 11/week 0)): 0.11
Log_fold change: Caprolactam degradation (In vivo (week 11/week 0)): 0.29
Log_fold change: Carbon fixation in photosynthetic organisms (In vivo (week 11/week 0)): −0.13
Log_fold change: Carbon fixation pathways in prokaryotes (In vivo (week 11/week 0)): 0.01
Log_fold change: Carbon metabolism (In vivo (week 11/week 0)): 0.00
Log_fold change: Cell cycle-Caulobacter (In vivo (week 11/week 0)): −0.06
Log_fold change: Chloroalkane and chloroalkene degradation (In vivo (week 11/week 0)): −0.07
Log_fold change: Citrate cycle (TCA cycle) (In vivo (week 11/week 0)): 0.03
Log_fold change: Cyanoamino acid metabolism (In vivo (week 11/week 0)): 0.18
Log_fold change: Cysteine and methionine metabolism (In vivo (week 11/week 0)): −0.02
Log_fold change: D-Alanine metabolism (In vivo (week 11/week 0)): −0.10
Log_fold change: D-Arginine and D-ornithine metabolism (In vivo (week 11/week 0)): −0.08
Log_fold change: D-Glutamine and D-glutamate metabolism (In vivo (week 11/week 0)): −0.04
Log_fold change: DDT degradation (In vivo (week 11/week 0)): −0.61
Log_fold change: DNA replication (In vivo (week 11/week 0)): −0.06
Log_fold change: Dioxin degradation (In vivo (week 11/week 0)): −0.34
Log_fold change: Drug metabolism-other enzymes (In vivo (week 11/week 0)): 0.05
Log_fold change: Ether lipid metabolism (In vivo (week 11/week 0)): 0.05
Log_fold change: Fatty acid biosynthesis (In vivo (week 11/week 0)): 0.05
Log_fold change: Fatty acid degradation (In vivo (week 11/week 0)): −0.03
Log_fold change: Fatty acid metabolism (In vivo (week 11/week 0)): 0.06
Log_fold change: Flagellar assembly (In vivo (week 11/week 0)): −0.18
Log_fold change: Folate biosynthesis (In vivo (week 11/week 0)): 0.13
Log_fold change: Fructose and mannose metabolism (In vivo (week 11/week 0)): 0.18
Log_fold change: Galactose metabolism (In vivo (week 11/week 0)): 0.24
Log_fold change: Geraniol degradation (In vivo (week 11/week 0)): 0.04
Log_fold change: Glutathione metabolism (In vivo (week 11/week 0)): 0.12
Log_fold change: Glycerolipid metabolism (In vivo (week 11/week 0)): 0.11
Log_fold change: Glycerophospholipid metabolism (In vivo (week 11/week 0)): 0.06
Log_fold change: Glycine, serine and threonine metabolism (In vivo (week 11/week 0)): 0.13
Log_fold change: Glycolysis/Gluconeogenesis (In vivo (week 11/week 0)): −0.09
Log_fold change: Glycosaminoglycan degradation (In vivo (week 11/week 0)): 0.34
Log_fold change: Glycosphingolipid biosynthesis-globoseries (In vivo (week 11/week 0)): 0.33
Log_fold change: Glyoxylate and dicarboxylate metabolism (In vivo (week 11/week 0)): 0.13
Log_fold change: Histidine metabolism (In vivo (week 11/week 0)): 0.13
Log_fold change: Homologous recombination (In vivo (week 11/week 0)): −0.09
Log_fold change: Inositol phosphate metabolism (In vivo (week 11/week 0)): −0.01
Log_fold change: Limonene and pinene degradation (In vivo (week 11/week 0)): 0.04
Log_fold change: Lipoicacid metabolism (In vivo (week 11/week 0)): 0.36
Log_fold change: Lipopolysaccharide biosynthesis (In vivo (week 11/week 0)): 0.21
Log_fold change: Lysine biosynthesis (In vivo (week 11/week 0)): −0.07
Log_fold change: Lysine degradation (In vivo (week 11/week 0)): 0.14
Log_fold change: Methane metabolism (In vivo (week 11/week 0)): 0.02
Log_fold change: Mismatch repair (In vivo (week 11/week 0)): −0.03
Log_fold change: Naphthalene degradation (In vivo (week 11/week 0)): 0.04
Log_fold change: Nicotinate and nicotinamide metabolism (In vivo (week 11/week 0)): −0.05
Log_fold change: Nitrogen metabolism (In vivo (week 11/week 0)): 0.00
Log_fold change: Nitrotoluene degradation (In vivo (week 11/week 0)): −0.22
Log_fold change: Novobiocin biosynthesis (In vivo (week 11/week 0)): 0.29
Log_fold change: Nucleotide excision repair (In vivo (week 11/week 0)): −0.08
Log_fold change: One carbon pool by folate (In vivo (week 11/week 0)): 0.07
Log_fold change: Other glycan degradation (In vivo (week 11/week 0)): 0.36
Log_fold change: Oxidative phosphorylation (In vivo (week 11/week 0)): −0.03
Log_fold change: Pantothenate and CoA biosynthesis (In vivo (week 11/week 0)): 0.04
Log_fold change: Penicillin and cephalosporin biosynthesis (In vivo (week 11/week 0)): 0.00
Log_fold change: Pentose and glucuronate interconversions (In vivo (week 11/week 0)): 0.31
Log_fold change: Pentose phosphate pathway (In vivo (week 11/week 0)): 0.03
Log_fold change: Peptidoglycan biosynthesis (In vivo (week 11/week 0)): 0.01
Log_fold change: Phenylalanine metabolism (In vivo (week 11/week 0)): 0.30
Log_fold change: Phenylalanine, tyrosine and tryptophan biosynthesis (In vivo (week 11/week 0)): 0.24
Log_fold change: Phosphonate and phosphinate metabolism (In vivo (week 11/week 0)): 0.30
Log_fold change: Phosphotransferase system (PTS) (In vivo (week 11/week 0)): −0.43
Log_fold change: Porphyrin and chlorophyll metabolism (In vivo (week 11/week 0)): 0.23
Log_fold change: Propanoate metabolism (In vivo (week 11/week 0)): 0.02
Log_fold change: Protein export (In vivo (week 11/week 0)): −0.04
Log_fold change: Proximal tubule bicarbonate reclamation (In vivo (week 11/week 0)): −0.01
Log_fold change: Purine metabolism (In vivo (week 11/week 0)): −0.08
Log_fold change: Pyrimidine metabolism (In vivo (week 11/week 0)): −0.08
Log_fold change: Pyruvate metabolism (In vivo (week 11/week 0)): 0.01
Log_fold change: RNA degradation (In vivo (week 11/week 0)): −0.05
Log_fold change: Riboflavin metabolism (In vivo (week 11/week 0)): −0.02
Log_fold change: Ribosome (In vivo (week 11/week 0)): −0.24
Log_fold change: Selenocompound metabolism (In vivo (week 11/week 0)): 0.03
Log_fold change: Sphingolipid metabolism (In vivo (week 11/week 0)): 0.34
Log_fold change: Starch and sucrose metabolism (In vivo (week 11/week 0)): 0.19
Log_fold change: Streptomycin biosynthesis (In vivo (week 11/week 0)): 0.10
Log_fold change: Styrene degradation (In vivo (week 11/week 0)): −0.06
Log_fold change: Sulfur metabolism (In vivo (week 11/week 0)): 0.19
Log_fold change: Sulfur relay system (In vivo (week 11/week 0)): −0.03
Log_fold change: Synthesis and degradation of ketone bodies (In vivo (week 11/week 0)): −0.35
Log_fold change: Taurine and hypotaurine metabolism (In vivo (week 11/week 0)): 0.14
Log_fold change: Terpenoid backbone biosynthesis (In vivo (week 11/week 0)): 0.04
Log_fold change: Tetracycline biosynthesis (In vivo (week 11/week 0)): −0.50
Log_fold change: Thiamine metabolism (In vivo (week 11/week 0)): −0.03
Log_fold change: Tropane, piperidine and pyridine alkaloid biosynthesis (In vivo (week 11/week 0)): 0.27
Log_fold change: Tryptophan metabolism (In vivo (week 11/week 0)): 0.01
Log_fold change: Two−component system (In vivo (week 11/week 0)): 0.06
Log_fold change: Tyrosine metabolism (In vivo (week 11/week 0)): 0.02
Log_fold change: Ubiquinone and other terpenoid-quinone biosynthesis (In vivo (week 11/week 0)): 0.03
Log_fold change: Valine, leucine and isoleucine biosynthesis (In vivo (week 11/week 0)): 0.10
Log_fold change: Valine, leucine and isoleucine degradation (In vivo (week 11/week 0)): 0.06
Log_fold change: Vibriocholerae pathogenic cycle (In vivo (week 11/week 0)): −0.01
Log_fold change: Vitamin B6 metabolism (In vivo (week 11/week 0)): 0.16
Log_fold change: Xylene degradation (In vivo (week 11/week 0)): −0.51
Log_fold change: beta-Alanine metabolism (In vivo (week 11/week 0)): 0.14
Log_fold change: beta-Lactam resistance (In vivo (week 11/week 0)): 0.11
KEGG pathways incl. ascorbate and aldarate metabolism, lipopolysaccharide biosynthesis, bacterial chemotaxis (mice consuming HFD and pure saccharin vs water): multiple enriched pathways
starch and sucrose, fructose and mannose metabolism, folate-, glycerolipid- and fatty acid biosynthesis pathways (microbiomes of saccharin consuming mice): enriched
glucose transport pathways (saccharin-consuming mice): underrepresented
glycan degradation pathways abundance (saccharin-consuming mice, week 11 vs week 0): strong increase
